Measured values: ChEMBL document CHEMBL5649170, “Sustained microglial depletion with CSF1R inhibitor impairs parenchymal plaque development in an Alzheimer's disease model” (Nat Commun, 2019)
Active and inactive are the calls of the source. The rule behind the calls is not given here.

What was measured:
[1] = molecular target: Casein kinase II subunit alpha (Homo sapiens, UniProt P68400); experiment: Inhibition of CSNK2A1 (unknown origin)
[2] = molecular target: Ephrin type-A receptor 2 (Homo sapiens, UniProt P29317); experiment: Inhibition of EPHA2 (unknown origin)
Ephrin type-A receptor 2, sequence (P29317 whole entry): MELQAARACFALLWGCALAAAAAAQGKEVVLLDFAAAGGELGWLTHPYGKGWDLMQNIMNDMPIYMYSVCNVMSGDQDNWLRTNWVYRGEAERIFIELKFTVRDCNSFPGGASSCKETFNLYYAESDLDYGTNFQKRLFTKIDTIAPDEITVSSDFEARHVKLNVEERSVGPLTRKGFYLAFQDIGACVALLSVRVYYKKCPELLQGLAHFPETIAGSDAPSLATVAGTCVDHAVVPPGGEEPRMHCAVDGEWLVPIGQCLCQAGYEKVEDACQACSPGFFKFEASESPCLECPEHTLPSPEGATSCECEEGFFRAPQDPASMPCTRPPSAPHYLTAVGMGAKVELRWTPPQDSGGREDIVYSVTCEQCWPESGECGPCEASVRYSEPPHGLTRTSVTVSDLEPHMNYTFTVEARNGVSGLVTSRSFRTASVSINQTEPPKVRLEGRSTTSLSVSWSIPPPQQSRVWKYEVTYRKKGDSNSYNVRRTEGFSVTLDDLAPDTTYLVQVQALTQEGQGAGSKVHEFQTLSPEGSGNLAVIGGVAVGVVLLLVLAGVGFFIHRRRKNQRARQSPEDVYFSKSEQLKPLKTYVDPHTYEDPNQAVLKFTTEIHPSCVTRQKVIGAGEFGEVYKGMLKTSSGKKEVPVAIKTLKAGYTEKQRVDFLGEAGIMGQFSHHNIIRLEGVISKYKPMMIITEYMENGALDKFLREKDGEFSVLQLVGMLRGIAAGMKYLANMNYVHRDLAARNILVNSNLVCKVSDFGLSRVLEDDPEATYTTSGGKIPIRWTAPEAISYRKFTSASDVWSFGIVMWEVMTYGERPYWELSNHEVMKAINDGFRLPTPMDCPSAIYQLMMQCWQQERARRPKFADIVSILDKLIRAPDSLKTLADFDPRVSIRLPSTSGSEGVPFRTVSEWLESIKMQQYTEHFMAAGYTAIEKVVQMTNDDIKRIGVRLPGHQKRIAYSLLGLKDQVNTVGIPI

[3] = molecular target: Mitogen-activated protein kinase 12 (Homo sapiens, UniProt P53778); experiment: Inhibition of MAPK12 (unknown origin)
Mitogen-activated protein kinase 12, sequence (P53778 whole entry): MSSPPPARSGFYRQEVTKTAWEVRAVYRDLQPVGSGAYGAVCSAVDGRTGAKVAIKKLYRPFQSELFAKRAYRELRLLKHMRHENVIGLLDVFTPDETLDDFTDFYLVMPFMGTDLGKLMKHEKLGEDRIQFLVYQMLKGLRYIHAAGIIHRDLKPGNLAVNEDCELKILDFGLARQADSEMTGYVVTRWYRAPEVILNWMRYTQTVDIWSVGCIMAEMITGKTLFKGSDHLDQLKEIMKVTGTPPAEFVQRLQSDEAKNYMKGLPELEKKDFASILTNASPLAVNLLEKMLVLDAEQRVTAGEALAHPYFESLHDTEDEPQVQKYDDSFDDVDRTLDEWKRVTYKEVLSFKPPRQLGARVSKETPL

[4] = molecular target: Hepatocyte growth factor receptor (Homo sapiens, UniProt P08581); experiment: Inhibition of MET (unknown origin)
Hepatocyte growth factor receptor, sequence (P08581 whole entry): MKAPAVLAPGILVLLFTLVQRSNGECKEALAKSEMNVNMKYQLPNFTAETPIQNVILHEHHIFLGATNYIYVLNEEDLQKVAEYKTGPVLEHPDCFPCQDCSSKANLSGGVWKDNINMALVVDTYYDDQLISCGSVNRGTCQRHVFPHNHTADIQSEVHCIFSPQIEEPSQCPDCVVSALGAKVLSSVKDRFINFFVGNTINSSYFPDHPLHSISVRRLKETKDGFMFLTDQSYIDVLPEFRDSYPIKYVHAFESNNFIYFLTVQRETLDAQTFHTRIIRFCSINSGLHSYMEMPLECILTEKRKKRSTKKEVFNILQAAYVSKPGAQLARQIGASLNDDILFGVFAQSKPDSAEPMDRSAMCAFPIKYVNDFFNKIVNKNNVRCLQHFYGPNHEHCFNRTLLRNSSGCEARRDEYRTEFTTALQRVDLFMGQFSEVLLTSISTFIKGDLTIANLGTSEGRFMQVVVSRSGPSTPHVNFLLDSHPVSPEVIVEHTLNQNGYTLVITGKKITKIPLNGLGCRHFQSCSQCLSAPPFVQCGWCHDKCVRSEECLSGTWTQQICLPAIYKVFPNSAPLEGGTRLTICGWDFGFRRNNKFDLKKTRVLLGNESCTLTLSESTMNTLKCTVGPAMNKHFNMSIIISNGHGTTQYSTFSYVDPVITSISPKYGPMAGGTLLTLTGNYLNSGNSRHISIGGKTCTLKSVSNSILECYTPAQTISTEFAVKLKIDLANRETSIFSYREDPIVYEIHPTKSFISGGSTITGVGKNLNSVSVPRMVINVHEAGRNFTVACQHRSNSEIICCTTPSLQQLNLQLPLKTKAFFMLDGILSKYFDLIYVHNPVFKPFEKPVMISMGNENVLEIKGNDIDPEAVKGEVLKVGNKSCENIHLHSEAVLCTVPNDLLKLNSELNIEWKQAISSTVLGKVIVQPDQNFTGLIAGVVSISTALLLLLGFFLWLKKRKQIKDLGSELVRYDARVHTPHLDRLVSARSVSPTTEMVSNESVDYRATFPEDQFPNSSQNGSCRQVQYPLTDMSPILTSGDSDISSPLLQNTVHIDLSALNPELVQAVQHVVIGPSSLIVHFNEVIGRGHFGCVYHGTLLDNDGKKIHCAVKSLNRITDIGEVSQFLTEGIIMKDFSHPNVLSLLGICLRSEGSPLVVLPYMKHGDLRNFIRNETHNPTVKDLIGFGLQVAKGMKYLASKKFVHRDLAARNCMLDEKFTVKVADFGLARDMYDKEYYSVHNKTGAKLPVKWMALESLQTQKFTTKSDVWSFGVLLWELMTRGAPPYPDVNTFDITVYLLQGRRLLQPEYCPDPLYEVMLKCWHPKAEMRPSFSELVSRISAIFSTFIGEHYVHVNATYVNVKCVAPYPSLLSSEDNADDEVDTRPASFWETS

[5] = molecular target: Serine/threonine-protein kinase pim-1 (Homo sapiens, UniProt P11309); experiment: Inhibition of PIM1 (unknown origin)
Serine/threonine-protein kinase pim-1, sequence (P11309 whole entry): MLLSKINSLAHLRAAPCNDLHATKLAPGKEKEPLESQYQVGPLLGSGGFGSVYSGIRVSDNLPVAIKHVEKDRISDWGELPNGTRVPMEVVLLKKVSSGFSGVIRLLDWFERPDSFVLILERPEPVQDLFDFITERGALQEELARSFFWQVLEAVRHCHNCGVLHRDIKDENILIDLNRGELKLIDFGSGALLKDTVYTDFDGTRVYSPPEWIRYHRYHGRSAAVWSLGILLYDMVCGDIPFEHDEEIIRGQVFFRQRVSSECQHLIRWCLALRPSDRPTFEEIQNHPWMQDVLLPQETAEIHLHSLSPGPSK

[6] = molecular target: cAMP-dependent protein kinase catalytic subunit alpha (Homo sapiens, UniProt P17612); experiment: Inhibition of PRKACA (unknown origin)
[7] = molecular target: Proto-oncogene tyrosine-protein kinase receptor Ret (Homo sapiens, UniProt P07949, V804L); experiment: Inhibition of RET V804L mutant (unknown origin)
Proto-oncogene tyrosine-protein kinase receptor Ret, sequence (P07949 29-1114 V804L limits assumed): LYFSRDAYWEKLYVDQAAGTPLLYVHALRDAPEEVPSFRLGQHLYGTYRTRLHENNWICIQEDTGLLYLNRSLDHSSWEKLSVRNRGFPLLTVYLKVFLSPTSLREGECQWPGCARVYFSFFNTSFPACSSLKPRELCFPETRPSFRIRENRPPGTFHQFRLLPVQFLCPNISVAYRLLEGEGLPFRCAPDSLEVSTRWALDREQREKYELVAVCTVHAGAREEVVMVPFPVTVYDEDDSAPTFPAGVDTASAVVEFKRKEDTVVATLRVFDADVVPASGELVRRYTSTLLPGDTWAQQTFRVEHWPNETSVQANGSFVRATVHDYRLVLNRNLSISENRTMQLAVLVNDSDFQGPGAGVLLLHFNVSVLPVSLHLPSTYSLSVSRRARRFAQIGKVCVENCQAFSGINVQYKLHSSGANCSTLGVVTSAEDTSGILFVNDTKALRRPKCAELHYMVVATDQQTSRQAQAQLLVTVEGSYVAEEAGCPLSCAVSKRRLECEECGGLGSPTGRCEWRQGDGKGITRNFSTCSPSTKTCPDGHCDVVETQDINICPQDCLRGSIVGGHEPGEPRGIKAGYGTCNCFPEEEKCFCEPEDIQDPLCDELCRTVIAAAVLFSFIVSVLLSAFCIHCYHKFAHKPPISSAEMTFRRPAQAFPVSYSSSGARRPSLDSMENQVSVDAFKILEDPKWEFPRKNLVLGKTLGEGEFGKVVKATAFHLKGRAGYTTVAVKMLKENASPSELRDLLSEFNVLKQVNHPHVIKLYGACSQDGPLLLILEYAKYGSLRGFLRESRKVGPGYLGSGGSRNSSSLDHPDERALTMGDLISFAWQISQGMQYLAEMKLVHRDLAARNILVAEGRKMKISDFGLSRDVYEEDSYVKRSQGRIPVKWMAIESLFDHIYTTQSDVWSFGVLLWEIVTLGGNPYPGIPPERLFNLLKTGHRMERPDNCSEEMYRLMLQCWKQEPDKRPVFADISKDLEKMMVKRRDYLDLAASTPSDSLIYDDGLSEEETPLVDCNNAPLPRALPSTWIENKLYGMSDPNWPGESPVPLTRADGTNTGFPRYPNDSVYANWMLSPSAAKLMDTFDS

[8] = molecular target: Sphingosine kinase 1 (Homo sapiens, UniProt Q9NYA1); experiment: Inhibition of SPHK1 (unknown origin)
Sphingosine kinase 1, sequence (Q9NYA1 whole entry): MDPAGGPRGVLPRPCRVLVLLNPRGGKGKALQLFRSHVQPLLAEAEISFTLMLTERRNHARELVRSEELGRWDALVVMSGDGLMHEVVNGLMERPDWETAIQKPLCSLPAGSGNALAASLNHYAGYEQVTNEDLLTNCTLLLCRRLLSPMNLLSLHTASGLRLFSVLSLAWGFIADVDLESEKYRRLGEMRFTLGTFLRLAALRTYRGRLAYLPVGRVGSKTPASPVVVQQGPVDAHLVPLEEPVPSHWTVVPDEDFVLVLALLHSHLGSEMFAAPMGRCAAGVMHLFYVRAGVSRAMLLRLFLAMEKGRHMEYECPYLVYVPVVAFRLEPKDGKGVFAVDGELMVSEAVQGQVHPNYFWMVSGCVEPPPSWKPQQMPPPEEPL

[9] = Volume of distribution at steady state in dog at 1.00 mg/kg, iv administered as single dose; type: ADME, organism-based, Canis lupus familiaris; conditions: in vivo, read-out: Vdss
[10] = Drug concentration in mouse plasma at 300 ppm administered as rodent chow for 14 days; type: ADME, cell-free; conditions: route po, time 14 day
[11] = test system: Mus musculus; experiment: Antialzheimer activity in 5XFAD mouse assessed as time spent in open arm at 1200 ppm administered as rodent chow for 10 to 24 weeks by Elevated plus maze test (reference value: 34.1 to 208.9 sec); type: functional; conditions: route po, time 10-24 weeks
[12] = molecular target: T1, Macrophage colony-stimulating factor 1 receptor (Mus musculus) (UniProt P09581); experiment: In vivo inhibition of CSF1R in wildtype mouse assessed as number of S100bteta positive cells per FOV in somatosensory cortex at 1200 ppm administered as rodent chow for 10 to 24 weeks by immunolabelling based confocal microscopic analysis (reference value: 14 to 342); type: functional; conditions: route po, time 10-24 weeks
T1 sequence (whole entry): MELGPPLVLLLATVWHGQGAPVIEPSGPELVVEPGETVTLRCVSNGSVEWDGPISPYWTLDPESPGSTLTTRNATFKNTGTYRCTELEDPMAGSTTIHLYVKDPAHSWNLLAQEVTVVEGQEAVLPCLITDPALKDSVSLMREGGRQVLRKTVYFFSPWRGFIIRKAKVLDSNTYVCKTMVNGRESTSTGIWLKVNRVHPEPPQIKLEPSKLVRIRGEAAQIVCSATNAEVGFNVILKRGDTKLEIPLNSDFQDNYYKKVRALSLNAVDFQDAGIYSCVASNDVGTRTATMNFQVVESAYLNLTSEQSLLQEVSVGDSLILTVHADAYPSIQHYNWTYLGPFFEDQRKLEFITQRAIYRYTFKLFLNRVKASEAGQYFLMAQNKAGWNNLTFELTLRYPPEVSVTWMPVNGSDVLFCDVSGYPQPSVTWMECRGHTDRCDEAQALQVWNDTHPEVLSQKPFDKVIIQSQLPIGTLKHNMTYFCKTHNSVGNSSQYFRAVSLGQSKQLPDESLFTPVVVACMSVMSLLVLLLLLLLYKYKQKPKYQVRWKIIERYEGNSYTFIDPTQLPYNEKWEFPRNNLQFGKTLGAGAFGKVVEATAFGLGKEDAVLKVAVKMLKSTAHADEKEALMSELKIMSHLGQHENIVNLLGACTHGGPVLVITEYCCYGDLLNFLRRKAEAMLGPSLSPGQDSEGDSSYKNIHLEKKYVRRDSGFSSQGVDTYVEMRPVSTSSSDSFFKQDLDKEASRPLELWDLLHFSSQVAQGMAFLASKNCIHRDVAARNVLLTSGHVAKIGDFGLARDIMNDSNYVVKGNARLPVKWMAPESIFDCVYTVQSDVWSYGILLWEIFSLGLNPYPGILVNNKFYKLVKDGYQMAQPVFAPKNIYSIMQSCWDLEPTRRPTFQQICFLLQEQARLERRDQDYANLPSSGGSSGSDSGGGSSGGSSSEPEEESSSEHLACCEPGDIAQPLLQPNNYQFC

[13] = test system: Mus musculus; experiment: Antialzheimer activity in 5XFAD mouse assessed as ApoE immunoreactivity by measuring ApoE intensity of plaque core in cortex at 1200 ppm administered as rodent chow starting from 1.5 months and measured after 7 months by immunolabeling based confocal microscopic analysis (reference value: 13.88 to 87.23 a.u.); type: functional; conditions: route po, time 5.5 months, 4015 h
[14] = Effect on Cx3cr1 gene expression in 5XFAD mouse cortex at 1200 ppm administered as rodent chow starting from 1.5 months and measured after 7 months by RNA-Seq analysis (reference value: 15.803 to 19.787); type: functional; conditions: route po, time 5.5 months, 4015 h
[15] = Effect on Cx3cr1 gene expression in 5XFAD mouse thalamus at 1200 ppm administered as rodent chow starting from 1.5 months and measured after 7 months by RNA-Seq analysis (reference value: 15.006 to 17.756 RPKM); type: functional; conditions: route po, time 5.5 months, 4015 h
[16] = Effect on Hexb gene expression in 5XFAD mouse thalamus at 1200 ppm administered as rodent chow starting from 1.5 months and measured after 7 months by RNA-Seq analysis (reference value: 75.322 to 93.439 RPKM); type: functional; conditions: route po, time 5.5 months, 4015 h
[17] = Effect on Ctsd gene expression in wild type mouse cortex at 1200 ppm administered as rodent chow starting from 1.5 months and measured after 7 months by RNA-Seq analysis (reference value: 110.927 to 117.612 RPKM); type: functional; conditions: route po, time 5.5 months, 4015 h
[18] = Effect on Rnf217 gene expression in wildtype mouse hippocampus assessed as percent change in Reads Per kilo base per Million mapped reads at 1200 ppm administered as rodent chow starting from 1.5 months and measured after 7 months by RNA-Seq analysis (reference value: 92.169 to 103.245 %); type: functional; conditions: route po, time 5.5 months, 4015 h
[19] = Effect on Nos1ap gene expression in wildtype mouse hippocampus assessed as percent change in Reads Per kilo base per Million mapped reads at 1200 ppm administered as rodent chow starting from 1.5 months and measured after 7 months by RNA-Seq analysis (reference value: 90.677 to 108.278 %); type: functional; conditions: route po, time 5.5 months, 4015 h
[20] = test system: Mus musculus; experiment: Prevention of Trem2 gene upregulation in 5XFAD mouse hippocampus at 1200 ppm administered as rodent chow starting from 1.5 months and measured after 7 months by Nanostring analysis; type: functional, tissue-based; conditions: route po, time 5.5 months
[21] = test system: Mus musculus; experiment: Antialzheimer activity in 5XFAD mouse assessed as microglial elimination in brain at 1200 ppm administered as rodent chow by Thio-S staining based confocal microscopic analysis; conditions: route po

Casein kinase II subunit alpha, sequence (P68400 whole entry): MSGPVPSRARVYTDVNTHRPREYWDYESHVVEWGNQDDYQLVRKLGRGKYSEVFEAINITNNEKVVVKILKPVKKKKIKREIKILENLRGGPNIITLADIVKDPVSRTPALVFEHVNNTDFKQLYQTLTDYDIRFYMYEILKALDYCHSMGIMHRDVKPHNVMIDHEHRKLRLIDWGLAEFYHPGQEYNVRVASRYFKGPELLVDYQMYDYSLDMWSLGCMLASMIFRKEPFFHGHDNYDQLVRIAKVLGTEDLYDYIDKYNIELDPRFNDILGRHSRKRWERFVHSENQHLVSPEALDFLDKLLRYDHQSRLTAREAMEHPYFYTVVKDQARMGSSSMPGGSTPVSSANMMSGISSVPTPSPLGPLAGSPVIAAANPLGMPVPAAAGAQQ

COc1ncc(F)cc1CNc1ccc(Cc2c[nH]c3ncc(C)cc23)c(F)n1 [PLX-5622]
IC50 [1]: > 1000 nM | IC50 [2]: > 1000 nM | IC50 [3]: > 1000 nM | IC50 [4]: > 1000 nM | IC50 [5]: > 1000 nM | IC50 [6]: > 1000 nM | IC50 [7]: > 1000 nM | IC50 [8]: > 1000 nM | Vd [9]: 2.3 L/kg | concentration at 336 h [10]: 4340 ng/mL | Time [11]: 157.6 s | Activity [12]: 270 | Flu intensity [13]: 4.57 a.u. | Activity [14]: 0.341 RPKM | Activity [15]: 0.179 RPKM | Activity [16]: 10.635 RPKM | Activity [17]: 76.394 RPKM | Activity [18]: 69.868% | Activity [19]: 78.494% | Activity [20]: Active | Activity [21]: Active
